Converted amounts (≈) assume the structure as drawn.
How the values were obtained:
[1] = Solubility (physicochemical properties)
[2] = test system: MRSA ngs2 (methicillin-resistant strain of Staphylococcus aureus); test: Antibacterial spectrum, standard serial dilution method in liquid medium; assay type: cell-based; settings: bacto-yeast nitrogen base-glucose-NZ-amine liquid medium, read-out: Minimum growth inhibitory concentration
Protocol: (§1) The antibacterial spectra of a bispolide A compound and a bispolide B compound were tested on a liquid medium consisting of bacto-yeast nitrogen base (a product of Difco Laboratories)-glucose-NZ-amine by a standard serial dilution method.

[3] = test system: Staphylococcus aureus FDA209P; test: as above; assay type: cell-based; settings: bacto-yeast nitrogen base-glucose-NZ-amine liquid medium, read-out: Minimum growth inhibitory concentration
Protocol: as §1

[4] = test system: MRSA ngs1 (methicillin-resistant strain of Staphylococcus aureus); test: as above; assay type: cell-based; settings: bacto-yeast nitrogen base-glucose-NZ-amine liquid medium, read-out: Minimum growth inhibitory concentration
Protocol: as §1

[5] = test system: Bacillus subtilis PCI 219; test: as above; assay type: cell-based; settings: PCI219, bacto-yeast nitrogen base-glucose-NZ-amine liquid medium, read-out: Minimum growth inhibitory concentration
Protocol: as §1

[6] = in 50% aqueous ethanol (ethanol:water 1:1 by volume)
[7] = in methanol, ethanol, dimethylsulfoxide (DMSO), acetone and ethyl acetate

## CCC1=C\C=C\C(CC)C(C(C)C(O)CC2(O)CC(OC3CC(O)C(O)C(C)O3)C(CC)C(C)O2)OC(=O)/C=C/C(CC)=C/C=C/C(CC)C(C(C)C(O)CC2(O)CC(OC3CC(O)C(O)C(C)O3)C(CC)C(C)O2)OC(=O)\C=C\1 (stereo not shown) [bispolide A1]
[1]; [6]
  Solubility: sparlingly soluble
[1]; [7]
  Solubility: Soluble well
[1]; in water and n-hexane
  Solubility: insoluble
[2]
  MIC: ≤ 0.049 µg/mL
[3]
  MIC: 1.56 µg/mL (≈ 1.38 µM)
[4]
  MIC: 12.5 µg/mL (≈ 11 µM)
[5]
  MIC: 0.39 µg/mL (≈ 0.344 µM)

## CCC1=C\C=C\C(CC)C(C(C)C(O)CC2(OC)CC(OC3CC(O)C(O)C(C)O3)C(CC)C(C)O2)OC(=O)/C=C/C(CC)=C/C=C/C(CC)C(C(C)C(O)CC2(O)CC(OC3CC(O)C(O)C(C)O3)C(CC)C(C)O2)OC(=O)\C=C\1 (stereo not shown) [bispolide A2]
[1]; [6]
  Solubility: sparlingly soluble
[1]; [7]
  Solubility: Soluble well
[1]; in water and n-hexane
  Solubility: insoluble
[2]
  MIC: 3.13 µg/mL (≈ 2.73 µM)
[3]
  MIC: 1.56 µg/mL (≈ 1.36 µM)
[4]
  MIC: 1.56 µg/mL (≈ 1.36 µM)
[5]
  MIC: 0.78 µg/mL (≈ 0.68 µM)

## CCC1=C\C=C\C(CC)C(C(C)C(O)CC2(OC)CC(OC3CC(O)C(O)C(C)O3)C(CC)C(C)O2)OC(=O)/C=C/C(CC)=C/C=C/C(CC)C(C(C)C(O)CC2(OC)CC(OC3CC(O)C(O)C(C)O3)C(CC)C(C)O2)OC(=O)\C=C\1 (stereo not shown) [bispolide A3]
[1]; [6]
  Solubility: sparlingly soluble
[1]; [7]
  Solubility: Soluble well
[1]; in water and n-hexane
  Solubility: insoluble
[2]
  MIC: 3.13 µg/mL (≈ 2.69 µM)
[3]
  MIC: 1.56 µg/mL (≈ 1.34 µM)
[4]
  MIC: 1.56 µg/mL (≈ 1.34 µM)
[5]
  MIC: 0.78 µg/mL (≈ 0.672 µM)

## CCC1=C\C=C\C(CC)C(C(C)C(O)CC2(O)CC(OC3OC(C)C(O)C(O)C3O)C(CC)C(C)O2)OC(=O)/C=C/C(CC)=C/C=C/C(CC)C(C(C)C(O)CC2(O)CC(OC3CC(O)C(O)C(C)O3)C(CC)C(C)O2)OC(=O)\C=C\1 (stereo not shown) [bispolide B1]
[1]; [6]
  Solubility: sparingly soluble
[1]; [7]
  Solubility: Soluble well
[1]; in water and n-hexane
  Solubility: insoluble
[2]
  MIC: ≤ 0.049 µg/mL
[3]
  MIC: 1.56 µg/mL (≈ 1.36 µM)
[4]
  MIC: 0.39 µg/mL (≈ 0.339 µM)
[5]
  MIC: 0.2 µg/mL (≈ 0.174 µM)

## CCC1=C\C=C\C(CC)C(C(C)C(O)CC2(OC)CC(OC3CC(O)C(O)C(C)O3)C(CC)C(C)O2)OC(=O)/C=C/C(CC)=C/C=C/C(CC)C(C(C)C(O)CC2(O)CC(OC3OC(C)C(O)C(O)C3O)C(CC)C(C)O2)OC(=O)\C=C\1 (stereo not shown) [bispolide B2a]
[1]; [6]
  Solubility: sparingly soluble
[1]; [7]
  Solubility: Soluble well
[1]; in water and n-hexane
  Solubility: insoluble
[2]
  MIC: 1.56 µg/mL (≈ 1.34 µM)
[3]
  MIC: 1.56 µg/mL (≈ 1.34 µM)
[4]
  MIC: 1.56 µg/mL (≈ 1.34 µM)
[5]
  MIC: 0.39 µg/mL (≈ 0.335 µM)

## CCC1=C\C=C\C(CC)C(C(C)C(O)CC2(OC)CC(OC3OC(C)C(O)C(O)C3O)C(CC)C(C)O2)OC(=O)/C=C/C(CC)=C/C=C/C(CC)C(C(C)C(O)CC2(O)CC(OC3CC(O)C(O)C(C)O3)C(CC)C(C)O2)OC(=O)\C=C\1 (stereo not shown) [bispolide B2b]
[1]; [6]
  Solubility: sparingly soluble
[1]; [7]
  Solubility: Soluble well
[1]; in water and n-hexane
  Solubility: insoluble
[2]
  MIC: 3.13 µg/mL (≈ 2.69 µM)
[3]
  MIC: 0.78 µg/mL (≈ 0.67 µM)
[4]
  MIC: 1.56 µg/mL (≈ 1.34 µM)
[5]
  MIC: 0.39 µg/mL (≈ 0.335 µM)

## CCC1=C\C=C\C(CC)C(C(C)C(O)CC2(OC)CC(OC3OC(C)C(O)C(O)C3O)C(CC)C(C)O2)OC(=O)/C=C/C(CC)=C/C=C/C(CC)C(C(C)C(O)CC2(OC)CC(OC3CC(O)C(O)C(C)O3)C(CC)C(C)O2)OC(=O)\C=C\1 (stereo not shown) [bispolide B3]
[1]; [6]
  Solubility: sparingly soluble
[1]; [7]
  Solubility: Soluble well
[1]; in water and n-hexane
  Solubility: insoluble
[2]
  MIC: 3.13 µg/mL (≈ 2.66 µM)
[3]
  MIC: 1.56 µg/mL (≈ 1.32 µM)
[4]
  MIC: 1.56 µg/mL (≈ 1.32 µM)
[5]
  MIC: 0.78 µg/mL (≈ 0.662 µM)
